Earlier results on four compounds are cited in patent publication US8293800B2, “Quinone derivative 2,3-dimethoxy-5-methyl-6-(10-hydroxydecyl)-1,4-benzoquinone for the treatment of primary progressive multiple sclerosis” (Santhera Pharmaceuticals (Schweiz) AG, priority 2009, dated 2012).

For data set [1] the following is noted: chronic-progressive form of MS; 90 mg/day in combination with methylprednisolone over 240 days.
For data set [2] the following is noted: PP-MS cohort; did not reach statistical significance.
For data set [3] the following is noted: PP-MS, placebo-controlled Phase II.
The conditions of data set [4]: PP-MS patients.

In the case of `COC1=C(OC)C(=O)C(CCCCCCCCCCO)=C(C)C1=O` [Idebenone, 2,3-dimethoxy-5-methyl-6-(10-hydroxydecyl)-1,4-benzoquinone], the “clinical or neurophysiological efficacy” value in data set [1] is “could not be shown to have any clinical or neurophysiological efficacy”.
Take `Nc1nc2ccc(OC(F)(F)F)cc2s1` [riluzole]: the “inhibiting the development of cervical cord atrophy” value in data set [2] is “mild effect”.
On to “Rituximab: Rituximab, tested in a placebo-controlled Phase II trial in PP-MS”, for which, in data set [3], the “effect on the accumulation of disability” value is given as “failed to demonstrate any effect”.
Take interferon-beta: the “could slow down the accumulation of disability in PP-MS” value in data set [4] is recorded as “Neither”.
